Experimental data reported in ChEMBL document CHEMBL5291721, “A preclinical secondary pharmacology resource illuminates target-adverse drug reaction associations of marketed drugs” (Nat Commun, 2023).

Assays:
[1] = target: T1, Gastrin/cholecystokinin type B receptor (Homo sapiens, UniProt P32239)
T1 sequence (P32239 whole entry): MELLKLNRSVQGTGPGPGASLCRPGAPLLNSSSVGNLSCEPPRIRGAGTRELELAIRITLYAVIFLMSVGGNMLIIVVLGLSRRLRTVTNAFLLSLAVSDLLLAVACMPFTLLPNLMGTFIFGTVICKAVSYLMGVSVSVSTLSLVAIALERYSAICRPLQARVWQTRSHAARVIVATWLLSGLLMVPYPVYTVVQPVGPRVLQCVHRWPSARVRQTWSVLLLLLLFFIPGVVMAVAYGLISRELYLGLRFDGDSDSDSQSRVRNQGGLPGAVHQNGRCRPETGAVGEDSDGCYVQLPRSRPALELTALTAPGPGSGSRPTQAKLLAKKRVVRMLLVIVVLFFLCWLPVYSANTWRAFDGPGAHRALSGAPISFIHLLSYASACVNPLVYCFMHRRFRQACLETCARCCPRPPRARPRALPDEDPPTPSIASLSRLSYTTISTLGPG

[2] = target: Cannabinoid receptor 1 (Homo sapiens, UniProt P21554); assay type: functional, cell-based
Sequence of Cannabinoid receptor 1 (P21554 whole entry): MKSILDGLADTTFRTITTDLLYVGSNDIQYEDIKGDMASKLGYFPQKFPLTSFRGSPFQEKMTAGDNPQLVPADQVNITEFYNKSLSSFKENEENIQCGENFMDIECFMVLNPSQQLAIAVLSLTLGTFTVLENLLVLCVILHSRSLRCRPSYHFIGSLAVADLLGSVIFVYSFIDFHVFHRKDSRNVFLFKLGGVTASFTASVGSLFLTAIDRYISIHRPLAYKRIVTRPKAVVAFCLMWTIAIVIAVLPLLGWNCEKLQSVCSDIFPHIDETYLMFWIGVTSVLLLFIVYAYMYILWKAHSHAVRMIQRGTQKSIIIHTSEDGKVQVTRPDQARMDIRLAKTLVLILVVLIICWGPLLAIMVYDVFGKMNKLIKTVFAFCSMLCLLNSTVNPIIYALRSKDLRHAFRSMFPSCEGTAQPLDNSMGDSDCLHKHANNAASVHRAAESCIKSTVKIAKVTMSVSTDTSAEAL

[3] = target: T2, Cholecystokinin receptor type A (Homo sapiens, UniProt P32238)
T2 sequence (P32238 whole entry): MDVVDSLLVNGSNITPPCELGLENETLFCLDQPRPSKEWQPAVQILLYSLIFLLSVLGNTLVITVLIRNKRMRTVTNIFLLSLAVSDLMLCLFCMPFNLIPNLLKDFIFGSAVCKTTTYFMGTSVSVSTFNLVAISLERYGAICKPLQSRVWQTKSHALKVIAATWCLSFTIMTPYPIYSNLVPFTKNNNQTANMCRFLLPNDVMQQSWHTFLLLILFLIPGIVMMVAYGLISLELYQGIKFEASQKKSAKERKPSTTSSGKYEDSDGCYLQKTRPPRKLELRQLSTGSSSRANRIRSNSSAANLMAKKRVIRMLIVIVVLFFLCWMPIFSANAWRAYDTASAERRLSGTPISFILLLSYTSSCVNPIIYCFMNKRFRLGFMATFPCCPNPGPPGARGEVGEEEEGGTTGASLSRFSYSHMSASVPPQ

[4] = target: Adenosine receptor A2a (Homo sapiens, UniProt P29274)
Sequence of Adenosine receptor A2a (P29274 whole entry): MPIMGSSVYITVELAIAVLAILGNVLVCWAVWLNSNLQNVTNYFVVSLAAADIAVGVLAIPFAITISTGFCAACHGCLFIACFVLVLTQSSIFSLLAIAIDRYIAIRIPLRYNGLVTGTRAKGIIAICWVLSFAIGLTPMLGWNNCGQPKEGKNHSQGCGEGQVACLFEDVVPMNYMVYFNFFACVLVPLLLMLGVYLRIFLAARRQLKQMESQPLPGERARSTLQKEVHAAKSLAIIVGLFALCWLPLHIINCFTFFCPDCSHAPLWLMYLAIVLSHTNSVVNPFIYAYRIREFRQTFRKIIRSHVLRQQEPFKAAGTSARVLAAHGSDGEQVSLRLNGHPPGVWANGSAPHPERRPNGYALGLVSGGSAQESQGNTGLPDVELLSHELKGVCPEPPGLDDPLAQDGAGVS

[5] = target: Kappa-type opioid receptor (Homo sapiens, UniProt P41145)
Sequence of Kappa-type opioid receptor (P41145 whole entry): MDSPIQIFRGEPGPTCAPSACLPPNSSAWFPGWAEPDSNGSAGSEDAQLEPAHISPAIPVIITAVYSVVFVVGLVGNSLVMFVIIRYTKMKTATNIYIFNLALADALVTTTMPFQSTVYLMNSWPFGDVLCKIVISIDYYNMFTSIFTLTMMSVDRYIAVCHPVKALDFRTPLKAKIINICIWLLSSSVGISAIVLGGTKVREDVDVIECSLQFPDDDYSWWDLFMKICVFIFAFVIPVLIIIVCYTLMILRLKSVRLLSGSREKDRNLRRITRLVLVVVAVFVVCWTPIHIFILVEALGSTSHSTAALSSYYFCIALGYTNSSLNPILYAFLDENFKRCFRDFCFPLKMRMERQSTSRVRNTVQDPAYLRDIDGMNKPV

[6] = target: T3, Muscarinic acetylcholine receptor M2 (Homo sapiens, UniProt P08172); assay type: functional, cell-based
T3 sequence (P08172 whole entry): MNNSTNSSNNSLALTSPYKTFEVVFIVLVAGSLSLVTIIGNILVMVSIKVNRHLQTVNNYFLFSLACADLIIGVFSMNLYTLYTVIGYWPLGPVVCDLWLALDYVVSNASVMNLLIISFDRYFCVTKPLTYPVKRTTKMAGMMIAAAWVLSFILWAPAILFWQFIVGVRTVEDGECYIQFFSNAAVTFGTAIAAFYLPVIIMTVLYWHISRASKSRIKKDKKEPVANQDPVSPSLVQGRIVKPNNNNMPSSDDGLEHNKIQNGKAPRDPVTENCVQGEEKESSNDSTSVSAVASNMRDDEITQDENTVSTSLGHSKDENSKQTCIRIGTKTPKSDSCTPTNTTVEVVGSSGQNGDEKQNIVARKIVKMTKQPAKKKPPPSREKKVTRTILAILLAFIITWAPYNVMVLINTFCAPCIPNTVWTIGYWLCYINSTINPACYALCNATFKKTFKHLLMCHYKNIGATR

[7] = target: Beta-2 adrenergic receptor (Homo sapiens, UniProt P07550); assay type: functional, cell-based
[8] = target: T4, B2 bradykinin receptor (Homo sapiens, UniProt P30411)
T4 sequence (P30411 whole entry): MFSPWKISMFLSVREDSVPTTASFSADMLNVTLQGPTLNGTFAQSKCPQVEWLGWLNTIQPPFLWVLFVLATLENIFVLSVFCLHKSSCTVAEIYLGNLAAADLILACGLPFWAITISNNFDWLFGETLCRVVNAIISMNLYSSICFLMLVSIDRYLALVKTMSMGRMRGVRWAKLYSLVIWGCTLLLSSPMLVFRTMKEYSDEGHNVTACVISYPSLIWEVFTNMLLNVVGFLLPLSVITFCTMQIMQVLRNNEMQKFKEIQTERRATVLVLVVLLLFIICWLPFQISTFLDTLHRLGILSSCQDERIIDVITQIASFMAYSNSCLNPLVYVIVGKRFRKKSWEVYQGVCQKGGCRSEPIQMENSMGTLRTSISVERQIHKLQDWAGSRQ
Note: assay procedure not described here.

Row | Molecule | AC50 [1] [µM] | AC50 [2] [µM] | AC50 [3] [µM] | AC50 [4] [µM] | AC50 [5] [µM] | AC50 [6] [µM] | AC50 [7] [µM] | AC50 [8] [µM]
1 | N=C(N)NCCCCCCC(=O)NC(O)C(=O)NCCCCNCCCN (centres undefined) | > 30 | > 30 | > 30 | > 30 | > 30 | > 30 | > 30 | > 30
2 | CCC(=O)OCC(=O)[C@@]1(OC(=O)CC)[C@@H](C)C[C@H]2[C@@H]3CCC4=CC(=O)C=C[C@]4(C)[C@@]3(F)[C@@H](O)C[C@@]21C [BETAMETHASONE DIPROPIONATE] | > 30 | > 30 | > 30 | > 30 | > 30 | > 30 |  | > 30
3 | CS(=O)(=O)OCCCCOS(C)(=O)=O [BUSULFAN] | > 30 | > 30 | > 30 | > 30 | > 30 | > 30 | > 30 | > 30
4 | CCOC(=O)NNc1ccc(N(CC)CC(C)O)nn1 (centres undefined) [CADRALAZINE] | > 30 | > 30 | > 30 | > 30 | > 30 | > 30 |  | > 30
5 | C=CC1=C(C(=O)O)N2C(=O)[C@@H](NC(=O)/C(=N\OCC(=O)O)c3csc(N)n3)[C@H]2SC1 [CEFIXIME] | > 30 | > 30 | > 30 | > 30 |  | > 30 | > 30 | > 30
6 | CO[C@@]1(NC(=O)Cc2cccs2)C(=O)N2C(C(=O)O)=C(COC(N)=O)CS[C@@H]21 [CEFOXITIN] | > 30 | > 30 | > 30 | > 30 | > 30 | > 30 | > 30 | > 30
7 | CCN(CC)CCOC(=O)c1ccc(N)cc1Cl [CHLOROPROCAINE] | > 30 | > 30 | > 30 | > 30 | > 30 | 29 | > 30 | > 30
8 | COCCOC(=O)C1=C(C)NC(C)=C(C(=O)OC/C=C/c2ccccc2)C1c1cccc([N+](=O)[O-])c1 (centres undefined) [CILNIDIPINE] | > 30 | > 30 | > 30 | > 30 | > 30 | > 30 | > 30 | > 30
9 | COc1cccc2c1C(=O)c1c(O)c3c(c(O)c1C2=O)C[C@@](O)(C(C)=O)C[C@@H]3O[C@H]1C[C@H](N)[C@H](O)[C@H](C)O1 [DAUNORUBICIN] | > 30 |  | 24 | 30 | > 30 |  | > 30 | > 10
10 | CC(C)c1cc2c(cc1S(=O)(=O)O)[C@@]1(C)CCC[C@@](C)(C(=O)O)[C@@H]1CC2 [ECABET] | > 30 | > 30 | > 30 | > 30 | 19 | > 30 |  | > 30
11 | Clc1ccc2c(c1)C(c1ccccc1)=NCc1nncn1-2 [ESTAZOLAM] | > 30 | > 30 | > 30 | > 30 | 20.1 | > 10 |  | > 30
12 | CCCN(CC)C(CC)C(=O)Nc1c(C)cccc1C (centres undefined) [ETIDOCAINE] | > 30 | > 30 | > 30 | > 30 | > 30 | > 30 |  | > 30
13 | O=C(O)c1ccccc1OP(=O)(O)O [FOSFOSAL] | > 30 | > 30 | > 30 | > 30 | > 30 | > 30 | > 30 | > 30
14 | Nc1ccn([C@@H]2O[C@H](CO)[C@@H](O)C2(F)F)c(=O)n1 [GEMCITABINE] | > 30 | > 30 | > 30 | > 30 | > 10 | > 10 |  | > 30
15 | C#C[C@]1(O)CC[C@H]2[C@@H]3CCC4=CC(=O)CCC4=C3C=C[C@@]21CC [GESTRINONE] | > 30 | > 30 | > 30 | > 30 | 23 | > 30 | > 30 | > 30
16 | CN(c1nccc(=O)[nH]1)C1CCN(c2nc3ccccc3n2Cc2ccc(F)cc2)CC1 [MIZOLASTINE] | > 30 | > 30 | > 30 | > 30 | > 30 | > 30 |  | > 30
17 | CCn1cc(C(=O)O)c(=O)c2cc(F)c(N3CCN(C)CC3)cc21 [PEFLOXACIN] | > 30 | > 30 | > 30 | > 30 |  | > 30 | > 30 | > 30
18 | CC[N+]1(C)CCCC(OC(=O)C(O)(c2ccccc2)c2ccccc2)C1 (centres undefined) [PIPENZOLATE] | > 30 | > 30 | > 30 | > 30 | > 30 | 0.023 |  | > 30
19 | CC(=O)c1ccc2c(c1)N(CCCN1CCC(CCO)CC1)c1ccccc1S2 [PIPERACETAZINE] | > 30 | > 30 | > 30 | > 30 | 4 | 24 |  | > 30
20 | Cc1ccc(=O)n(-c2ccccc2)c1 [PIRFENIDONE] | > 30 | > 30 | > 30 | > 30 | > 30 | > 30 | > 30 | > 30
21 | C[n+]1ccccc1/C=N/O [PRALIDOXIME] |  | > 30 |  |  | > 30 |  | > 30 | 
22 | CCCNC(C)C(=O)Nc1ccccc1C (centres undefined) [PRILOCAINE] | > 30 | > 30 | > 30 | > 30 | > 30 | > 30 | > 30 | > 30
23 | CCCOC(C(=O)OC1CCN(C)CC1)(c1ccccc1)c1ccccc1 [PROPIVERINE] | > 30 | > 30 | > 30 | > 30 | 11 | 3.6 |  | > 30
24 | CC(C)(C)NC[C@H](O)COc1nsnc1N1CCOCC1 [TIMOLOL] | > 30 | > 30 | > 30 | > 30 | > 30 | > 30 |  | > 30
25 | COc1cc2nccc(Oc3ccc(NC(=O)Nc4cc(C)on4)c(Cl)c3)c2cc1OC [TIVOZANIB] |  |  |  | > 3 |  | > 30 |  | 
26 | CN1[C@@H]2CC[C@H]1C[C@@H](OC(=O)c1c[nH]c3ccccc13)C2 [TROPISETRON] | > 30 | > 30 | > 10 | > 30 | > 30 | > 30 |  | > 30
27 | COLISTIN |  | > 30 |  |  | > 30 |  | > 30 | 
